Test: Solubility of mometasone furoate in foam composition, visual inspection
Assay type: physicochemical
Conditions: in the hydro-alcoholic foam formulation

- Solubility of Mometasone Furoate: soluble
SMILES: C[C@@H]1C[C@H]2[C@@H]3CCC4=CC(=O)C=C[C@]4(C)[C@@]3(Cl)[C@@H](O)C[C@]2(C)[C@@]1(OC(=O)c1ccco1)C(=O)CCl [Mometasone furoate]

Reference: patent US10092588B2, “Foamable compositions, breakable foams and their uses” (Foamix Pharmaceuticals Ltd., priority 2009, dated 2018)
